Results: US20230093311A1, “HEAT TOLERANCE OR DRYING TOLERANCE IMPROVING AGENT, SALT TOLERANCE IMPROVING AGENT, ACTIVITY IMPROVING AGENT FOR PLANT” (priority 2020, published 2023)
Where two headings read alike, the source gives them in different places.

Legend:
[1] = tested on: stem lettuce (Lactuca sativa L.); conditions: humidity 40%; for survival rate: 50 mL of 10 mM aqueous acetic acid solution at root, 24 hours, then 42° C., continuous light, no water supply
Protocol: (§1) A plant that was irrigated, at its root, with 50 mL of water and allowed to absorb it over 24 hours was assigned to water treatment group 1, and a plant that was irrigated, at its root, with 50 mL of a 10 mM aqueous acetic acid solution and allowed to absorb it over 24 hours was assigned to acetic acid treatment group 1.
(§2) The survival rate was calculated by counting the number of stem lettuce seedlings that were not killed by firing.

[2] = tested on: tomato (breed: Momotaro, Solanum lycopersicum); conditions: for survival rate: 50 mL at root, 24 hours: 20 mM acetic acid alone, or 10 mM acetic acid and 10 mM malic acid, then 50° C., humidity 10%, no water supply
Protocol: as §1, with “3,” for “1,”, “20” for “10”, “3. Also, a plant that was irrigated, at its root, with 50 mL of an aqueous solution containing 10 mM acetic acid and 10 mM malic acid and allowed to absorb it over 24 hours was assigned to treatment group 3.” for “1.”
as §2

[3] = tested on: Spinach (Spinacia oleracea); test: Activation test 2 (plant growth, plant size after harvest); assay type: in vivo; conditions: pH=6.0, 50 mL at root 3 times, harvest 45 days after first irrigation
Protocol: Spinach (Spinacia oleracea of the family Amaranthaceae) budded from seeds direct-seeded in a farm field in a plastic greenhouse was used. During the test period, each plant was watered twice a day at 6 a.m. and 4 p.m. from an automatically controlled irrigation system. 2 weeks after budding, a seedling having three to five true leaves was irrigated, at its root, with 50 mL of each testing solution given below. 2 weeks and 4 weeks after the initial irrigation treatment, the plant was irrigated again with 50 mL of the testing solution (irrigated a total of 3 times). […] The average weight and standard deviation of the plants in each test group were calculated. […] The results of the Welch test in these and following drawings mean *: p<0.05 and **: p<0.01. The testing solutions used are as described below. Testing solutions prepared in the same way were also used in activation tests 3 to 6 given below. […] Malic acid treatment group 2: 0.24% (w/w) aqueous malic acid solution Acetic acid treatment group 2: 0.06% (w/w) aqueous acetic acid solution Treatment group 2: aqueous solution containing 0.24% (w/w) malic acid and 0.06% (w/w) acetic acid Each solution was adjusted to pH=6.0 using KOH.

[4] = tested on: Carrot (Daucus carota subsp. sativus); test: Activation test 3 (root growth, plant size after harvest); assay type: in vivo; conditions: 0.24% (w/w) malic acid, 0.06% (w/w) acetic acid, or both, pH=6.0; 50 mL at root 3 times; harvest 90 days after first irrigation; Welch test
Protocol: Carrot (Daucus carota subsp. sativus of the family Apiaceae) budded from seeds direct-seeded in a farm field was used.
During the test period, each plant was watered by natural rainfall.
2 weeks after budding, a seedling having four to five true leaves was irrigated, at its root, with 50 mL of each testing solution. 3 weeks and 6 weeks after the initial irrigation treatment, the plant was irrigated again with 50 mL of the testing solution (irrigated a total of 3 times).
90 days after the first irrigation treatment, plant individuals were harvested, and aerial parts (leaf parts) were cut off to prepare edible root parts. Then, the wet weights of 100 individuals per test group were measured. Top 10% and bottom 10% of the data were removed, and the average weight and standard deviation of the plants in each test group were calculated as to the remaining 80 individuals.

[5] = tested on: spinach; test: Activation test 5 (maintenance of freshness and water after harvest); assay type: in vivo, Spinacia oleracea; conditions: 100 mL/plant at root on the day before harvest, humidity 40%
Protocol: 18 hours later, the aerial part was harvested by cutting at the root with a cutter, and 5 bunches were wrapped with a piece of newspaper having the same area (30 cm×45 cm) among samples. Four types in total of test groups (20 individuals in total) including all the test groups were placed in a plastic bag (25 cm×[…]), positioned in an upright posture with the mouth of the bag opened, and stored in a refrigerator of 4° C. with a humidity of 40%. Time-dependent change in the weight of each individual was measured with a weight scale. […] The mean and standard deviation of change in the weights of 20 individuals at each time per group were determined.

[6] = tested on: Swamp chrysanthemum (Leucanthemum paludosum); test: Activation test 6 (induction and growth of flower buds); assay type: in vivo; conditions: for number of new flower buds compared with water treatment group 6: pots dipped in 200 mL testing solution 24 hours, apical buds cut off, counted 3 weeks later, 0.24% (w/w) malic acid, 0.06% (w/w) acetic acid, or both, pH=6.0
Text: Swamp chrysanthemum (Leucanthemum paludosum of the family Compositae) raised in a 9 cm pot was used. […] All apical buds of the plants thus treated with the solution were cut off (pinched) with scissors.

[7] = tested on: aromaticus (Plectranthus amboinicus); test: Activation test 4 (induction of roots); conditions: cuttings dipped in 200 mL testing solution (0.06% (w/w) acetic acid, or 0.24% (w/w) malic acid and 0.06% (w/w) acetic acid, pH=6.0), raised 2 weeks
[8] = tested on: Peperomia (Peperomia albovittata); test: Activation test 1 (induction and growth of flower buds); conditions: 50 mL at root, 24 hours: 20 mM acetic acid alone, or 20 mM acetic acid and 0.075 μM malic acid, 22° C., humidity 40%, left standing 3 weeks

| Compound | ability of plants to tolerate drying at a high temperature ([1]; 10 mM acetic acid, 42° C., compared with water treatment group 1) | survival rate ([1]; left standing 5 days) [%] | survival rate ([1]; still standing 7 days) [%] | survival rate ([2]; still standing 3 days) [%] | survival rate ([2]; still standing 4 days) [%] | ability to tolerate drying at a high temperature (order of groups) ([2]; order: acetic acid+malic acid treatment group 3, acetic acid treatment group 3, water treatment group 3) | increase in wet weight ([3]; against water treatment group 2, 0.06% (w/w) acetic acid, or 0.24% (w/w) malic acid and 0.06% (w/w) acetic acid, 20 individuals) [%] | significant difference in wet root weight after harvest against water treatment group 3 [4] | effect of maintaining the freshness of plants after harvest ([5]; stored at 4° C.) | reduction preventing effect on decrease in water content compared with water treatment group 5 ([5]; after 96 hours at 4° C., 0.06% (w/w) acetic acid, or with 0.24% (w/w) malic acid) [%] | water retaining effect compared with water treatment group 5 and malic acid treatment group 5 ([5]; at and after 12 hours from the start of refrigeration, 4° C.) | new formation and formation of apical buds and flower buds ([6]; conclusion of activation test 6) | number of new flower buds compared with water treatment group 6 [6] | new roots confirmed [7] | number of flower buds after flowering that grew into 3 cm or larger ([8]; water treatment group 0) | number of flower buds formed before flowering ([8]; water treatment group 3) | significant difference in wet weight against water treatment group 2 ([3]; 0.24% (w/w) aqueous malic acid solution, Welch test) | significant difference in the rate of decrease in wet weight against water treatment group 5 ([5]; 0.24% (w/w) malic acid, pH=6.0, stored at 4° C.) |
| --- | --- | --- | --- | --- | --- | --- | --- | --- | --- | --- | --- | --- | --- | --- | --- | --- | --- | --- |
| CC(=O)O [acetic acid] | potentiated the ability of plants to tolerate drying at a high temperature | 100 | 100 | 100 | 0 | more potentiated | 122 | No significant difference | effect of maintaining the freshness of plants after harvest was shown | 7.1 | marked water retaining effect | can promote the new formation and formation of apical buds and flower buds | increase in the number of flower buds | New roots were confirmed in neither | 0 | 5 | – | – |
| O=C(O)CC(O)C(=O)O (centres unmarked) [malic acid] | – | – | – | – | – | – | – | No significant difference | – | – | – | – | No significant difference | – | – | – | No significant difference | No significant difference |
